Legend:
Large White piglets = test: Clinical signs after oral administration of cereulide; format: in vivo, pig
Experimental: In each experiment five Large White piglets, weighing 10–15 kg, were used. All piglets were derived from one single farm in Austria. The animals were placed in metabolic cages 3 days before start of the experiment for acclimatization. Water ad libitum and feed (Ferkelkorn, Garant Tiernahrung, Pöchlarn, Austria) were available before and during the whole experiment.
A total of four experiments, each including four treated animals and one control pig, was performed to investigate the action of cereulide on piglets after oral intake of cereulide. Pigs were either challenged orally with a single dose (acute trials) or with daily over a period of 7 days (chronic trial) (see Table 1). One hour before cereulide toxin administration blood samples were taken by puncturing the anterior Vena cava and piglets were weighed for calculation of the cereulide concentration (t = 0 h). In the intoxication experiment with 150 μg kg^-1 blood samples were taken 68 h before the experiment to reduce the distress for the animals at the start day of the experiments. Blood-chemical, immunological, and histological analyses of selected organs as well as quantification of cereulide in organs, tissues, urine and feces were carried out as detailed below.
On body weight calculated amounts of cereulide, dissolved in ethanol, were mixed with milk (UHT milk; 3.5% fat), and fed to four piglets. Control piglets were fed with milk supplemented with similar ethanol concentrations as the experimental piglets. The experiment started after the uptake of the whole milk cereulide mixture. The milk was checked for bacterial contamination prior to the experiment.
After oral administration of cereulide, piglets were monitored for unusual behavior and examined physically with special respect on rectal body temperature as well as pulse and respiration rate, every 2–3 h. Blood samples were taken from the Vena cava cranialis. Urine and feces were collected during the whole experiment and stored at -80°C. After the experiment pigs were anaesthetized by intramuscular injection of a bolus of ketamine (10 mg kg^-1) and azaperone (1.3 mg kg^-1). When sedation was deep enough cerebrospinal fluid (liquor) was taken by lumbar puncture. Finally, pigs were euthanized by intracardial injection of T61®. Animals were then necropsied and parts of the following organs, tissues or body fluids were taken for SIDA-MS analysis: liver, lung, heart, kidney, brain, spleen, small and large intestine, lymph nodes, gastric as well as intestinal contents, skeletal muscle, and abdominal and subcutaneous fat. Samples of liver, lung, heart, kidney, brain, spleen, small, and large intestine were collected for histological analysis.

[1] = system: Peripheral blood mononuclear cells (PBMC); test: Flow cytometric analysis of PBMC populations; format: in vivo, pig
Experimental: Peripheral blood mononuclear cells (PBMC) were isolated from heparin-stabilized blood samples (5–8 mL) using Ficoll-Hypaque (PAA, Austria) density centrifugation as described elsewhere ([Saalmüller et al., 1987]). For flow cytometric (FCM) analysis PMBCs were labeled with monoclonal antibodies as indicated in Supplementary Table S1 and stained with the respective isotype-specific conjugates. For analysis of regulatory T cells, cells were fixed and permeabilized by using Foxp3 Staining Buffer Set (eBioscience) in accordance with the manufacturer‘s instructions or for B cells by a FormSap-F&P permeabilization and fixation protocol as described previously ([Gerner et al., 2008]; [Käser et al., 2008]). Samples were analyzed immediately after the final washing steps. Flow cytometric analyses were performed on a FACSCantoII (BD Bioscience). 50,000 events were collected for each sample. Data were analyzed using FACSDiva software 6.1.3 (BD Bioscience) and FlowJo software 7.6.
Neg a tiv e c ontr ol - - - - Isoty p co ntr ol Ig G2b 1 Anti-Ig G2b-Alexa488 2 - - Isoty pe cont rol Isoty p co ntr ol Ig G 1 Anti-Ig G1-RPE 3 […]
T he lp er ce lls Anti-CD4 (74-12-4; IgG2b) 4 Anti-Ig G2b-Alexa488 2 - - NK ce lls Anti-CD3 (PPT3; IgG1) 5 Anti-Ig G1-RPE 3 […]

[2] = oral doses 10 to 150 μg kg^-1, summary in discussion

**Q.** With `CC(C)C[C@H]1OC(=O)[C@H](C(C)C)NC(=O)[C@H](C(C)C)OC(=O)[C@@H](C)NC(=O)[C@@H](CC(C)C)OC(=O)[C@H](C(C)C)NC(=O)[C@H](C(C)C)OC(=O)[C@@H](C)NC(=O)[C@@H](CC(C)C)OC(=O)[C@H](C(C)C)NC(=O)[C@H](C(C)C)OC(=O)[C@@H](C)NC1=O` [cereulide] as the compound, how does the “Pulse and respiration rates, inner body temperature” value (Large White piglets; all animals, except during periods of seizures and convulsions) read?
**A.** Its value is “normal pulse and respiration rates as well as inner body temperature”.

**Q.** And the Onset of seizures (Large White piglets; daily oral dose 10 μg kg^-1 for 7 days, all four pigs to varying extents)?
**A.** The Onset of seizures was 2 to 4 h.

**Q.** What about the “Onset of transient depressiveness” value (Large White piglets; daily oral dose 10 μg kg^-1 for 7 days, all piglets) of the same compound?
**A.** Its value is 2 to 6 h.

**Q.** What about the “Emesis in the pigs” value (Large White piglets; oral doses 10 to 150 μg kg^-1) of the same compound?
**A.** Its value is “only rarely observed”.

**Q.** And the “Onset of observed symptoms in the piglets” value (Large White piglets; [2])?
**A.** The value was 1.5 to 3 h.

**Q.** And the “Time after which symptoms ceased” value (Large White piglets; [2])?
**A.** The value was 7 to 9 h.

**Q.** What about the “Duration of transient depressive behavior” value (Large White piglets; single oral dose 10 μg kg^-1, all treated piglets) of the same compound?
**A.** The value was 4.5 to 6 h.

**Q.** And the “Time of vomiting after toxin intake” value (Large White piglets; single oral dose 10 μg kg^-1, one animal)?
**A.** The value was 11 h.

**Q.** What about the “Time after which all symptoms disappeared” value (Large White piglets; single oral dose 30 μg kg^-1) of the same compound?
**A.** Its value is 7 to 9 h.

**Q.** And the Onset of shivering (Large White piglets; single oral dose 30 μg kg^-1, 2/4 piglets, seizures an additional hour later)?
**A.** Its Onset of shivering is 1 h.

**Q.** What about the “Onset of seizures after cereulide intake” value (Large White piglets; single oral dose 30 μg kg^-1, remaining two piglets) of the same compound?
**A.** The value was 4 to 6 h.

**Q.** And the “Onset of lethargic behavior” value (Large White piglets; single oral dose 150 μg kg^-1, all treated piglets)?
**A.** The value was 1.5 to 2 h.

**Q.** And the “Time to gradual recovery” value (Large White piglets; single oral dose 150 μg kg^-1, three of the four piglets)?
**A.** Its value is 6 to 7 h.

**Q.** And the “Cell composition of PBMCs in comparison to control pigs” value ([1]; after oral administration of cereulide)?
**A.** The value was “no significant changes”.

**Q.** What about the “Proportions of blood cell populations” value ([1]; daily oral dose 10 μg kg^-1 over 7 days) of the same compound?
**A.** The value was “remained stable”.

Source: paper PMC6234764, “First Insights Into Within Host Translocation of the Bacillus cereus Toxin Cereulide Using a Porcine Model” (Frontiers in Microbiology, 2018)
